# Like-named read-outs stand apart in the source and are kept apart here.
# Experiments:
# [1] = Example 3.2 proof-of-concept PK study: cyclosporine tear fluid concentration and drug released, beagles (Table 3.2); format: in vivo, beagle dogs; details: 0.44 mg dose SG insert, over 32 days, assuming consistent daily release
# Text: Inserts were removed at 32 days to determine the amount of remaining drug compared to the administered dose.
# [2] = cyclosporine specification provided by the supplier; cited from earlier work
# [3] = 0.7 mg dose SAZ insert, beagles
compound,measurement,setting,value
"CC=CCC(C)C(O)C1C(=O)NC(CC)C(=O)N(C)CC(=O)N(C)C(CC(C)C)C(=O)NC(C(C)C)C(=O)N(C)C(CC(C)C)C(=O)NC(C)C(=O)NC(C)C(=O)N(C)C(CC(C)C)C(=O)N(C)C(CC(C)C)C(=O)N(C)C(C(C)C)C(=O)N1C (stereo not drawn) [Cyclosporine, 30-ethyl-33-(1-hydroxy-2-methylhex-4-enyl)-1,4,7,10,12,15,19,25,28-nonamethyl-6,9,18,24-tetrakis(2-methylpropyl)-3,21-di(propan-2-yl)-1,4,7,10,13,16,19,22,25,28,31-undecazacyclotritriacontane-2,5,8,11,14,17,20,23,26,29,32-undecone]",estimated daily delivered dose,[1],6.3 µg/day
same,D10,[2],0.5 μm
same,D50,[2],2.1 μm
same,D90,[2],7.5 μm
same,average amount of cyclosporine released in 6 weeks,[3]; inserts removed at 6 weeks,0.37 mg
same,estimated daily delivered dose,"[3]; over 6 weeks, assuming consistent daily release",8.8 µg/day

# Source: patent publication US11291627B1 (Ocular Therapeutix, Inc., priority 2020, dated 2022)
